Laboratory results reported in patent US7138361B2, “Herbicidal heterocycles” (E. I. du Pont de Nemours and Company, priority 2000, dated 2006).

Columns and labels:
Type in all cases: in vivo
Nightshade [1] = assay: Test C preemergence; conditions: Rate 500 g/ha, visual evaluation after 12 to 14 days
[2] = test system: smallflower flatsedge (Cyperus difformis); assay: Test C flooded paddy test; conditions: for Flatsedge plant response rating: Flooded Paddy, scale 0 to 100, 0 no effect, 100 complete control; for Plant response rating, Flatsedge: flooded paddy test, scale 0 to 100 (0 no effect, 100 complete control)
Summary of the method: (§1)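 Each species was cultivated to 2 leaves in flooded paddy pots, then treated. After a greenhouse period of 12–14 days, the plants were scored visually relative to controls from 0 (no effect) to 100 (complete control).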

[3] = test system: duck salad (Heteranthera limosa); assay: Test C flooded paddy test; conditions: for Ducksalad plant response rating: Flooded Paddy, scale 0 to 100, 0 no effect, 100 complete control
Summary of the method: as §1

rice (Oryza saliva) = assay: Test C flooded paddy test; conditions: for Rice plant response rating: Flooded Paddy, scale 0 to 100, 0 no effect, 100 complete control; for Plant response rating, Rice: flooded paddy test, scale 0 to 100 (0 no effect, 100 complete control)
Summary of the method: as §1

[4] = test system: goosegrass (Eleusine indica); assay: Test C preemergence
Summary of the method: (§2)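 Formulation: non-phytotoxic solvent mix incl. surfactant. Pre: applied right after planting. Post: 1–4-leaf seedlings. Read: visual 0–100, day 12–14, greenhouse.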

[5] = test system: woolly cupgrass (Eriochloa villosa); assay: Test C preemergence
Summary of the method: as §2

Nightshade [6] = assay: Test C preemergence
[7] = test system: morningglory (Ipomoea hederacea); assay: Test C preemergence
Summary of the method: as §2

[8] = test system: crabgrass (Digitaria sanguinalis); assay: Test C preemergence
Summary of the method: as §2

[9] = test system: lambsquarters (Chenopodium album); assay: Test C preemergence
Summary of the method: as §2

[10] = test system: yellow nutsedge (Cyperus esculentus); assay: Test C preemergence
Summary of the method: as §2

[11] = test system: velvetleaf (Abutilon theophrasti); assay: Test C preemergence
Summary of the method: as §2

[12] = test system: johnsongrass (Sorghum halepense); assay: Test C preemergence
Summary of the method: as §2

[13] = test system: common ragweed (Ambrosia elatior); assay: Test C preemergence; conditions: preemergence
Summary of the method: as §2

kochia (Kochia scoparia) = assay: Test C preemergence
Summary of the method: as §2

[14] = test system: cocklebur (Xanthium strumarium); assay: Test C preemergence
Summary of the method: as §2

[15] = test system: bermudagrass (Cynodon dactylon); assay: Test C preemergence
Summary of the method: as §2

[16] = test system: Surinam grass (Brachiaria decumbens); assay: Test C preemergence
Summary of the method: as §2

Sunflower = assay: Test C preemergence; conditions: Rate 125 g/ha; scale 0 to 100, 0 no effect, 100 complete control
[17] = test system: giant foxtail (Setaria faberii); assay: Test C preemergence
Summary of the method: as §2

soybean (Glycine max) = assay: Test C preemergence
Summary of the method: as §2

[18] = test system: pigweed (Amaranthus retroflexus); assay: Test C preemergence
Summary of the method: as §2

corn (Zea mays) = assay: Test C preemergence
Summary of the method: as §2

[19] = Rate 125 g/ha, scale 0 to 100, 0 no effect, 100 complete control
[20] = preemergence, Rate 62 g/ha, scale 0 to 100
[21] = preemergence, Rate 500 g/ha, visual evaluation after 12 to 14 days
[22] = preemergence, Rate 250 g/ha, scale 0 to 100, 0 no effect, 100 complete control
[23] = Rate 250 g/ha, scale 0 to 100, 0 no effect, 100 complete control

CCC(CC)c1ccn(C2CCN(c3ccc(Cl)c(OC)c3)C2=O)n1 (centres unmarked) [Compound 118]
Plant response rating (0 to 100), Nightshade (Nightshade [1]): 100
Flatsedge plant response rating ([2]; Rate 250 g/ha): 100
Flatsedge plant response rating ([2]; Rate 500 g/ha): 100
Plant response rating, Flatsedge ([2]; Rate 62 g/ha): 0
Plant response rating, Flatsedge ([2]; Rate 125 g/ha): 100
Ducksalad plant response rating ([3]; Rate 250 g/ha): 100
Ducksalad plant response rating ([3]; Rate 500 g/ha): 100
Plant response rating, Ducksalad ([3]; flooded paddy test, Rate 125 g/ha, scale 0 to 100 (0 no effect, 100 complete control)): 60
Rice plant response rating (rice (Oryza saliva); Rate 250 g/ha): 20
Rice plant response rating (rice (Oryza saliva); Rate 500 g/ha): 30
Plant response rating, Rice (rice (Oryza saliva); Rate 62 g/ha): 0
Plant response rating, Rice (rice (Oryza saliva); Rate 125 g/ha): 0
Plant response rating, Goosegrass [4, 19]: 100
Plant response rating, Goosegrass [4, 20]: 100
Plant response rating (0 to 100), Goosegrass [4, 21]: 100
Plant response rating, Goosegrass [4, 22]: 100
Plant response rating, Cupgrass, Woolly [5, 19]: 90
Plant response rating, Cupgrass, Woolly [5, 20]: 40
Plant response rating (0 to 100), Cupgrass, Woolly [5, 21]: 100
Plant response rating, Cupgrass, Woolly [5, 22]: 100
Plant response rating, Nightshade (Nightshade [6]; Rate 62 g/ha, scale 0 to 100): 100
Plant response rating, Nightshade (Nightshade [6]; [19]): 100
Plant response rating, Nightshade (Nightshade [6]; [23]): 100
Plant response rating, Morningglory [7, 19]: 20
Plant response rating, Morningglory [7, 20]: 0
Plant response rating (0 to 100), Morningglory [7, 21]: 100
Plant response rating, Morningglory [7, 22]: 90
Plant response rating, Crabgrass [8, 19]: 100
Plant response rating, Crabgrass [8, 20]: 100
Plant response rating (0 to 100), Crabgrass [8, 21]: 100
Plant response rating, Crabgrass [8, 22]: 100
Plant response rating, Lambsquarters [9, 19]: 100
Plant response rating, Lambsquarters [9, 20]: 100
Plant response rating (0 to 100), Lambsquarters [9, 21]: 100
Plant response rating, Lambsquarters [9, 22]: 100
Plant response rating, Nutsedge [10, 19]: 0
Plant response rating, Nutsedge [10, 20]: 0
Plant response rating (0 to 100), Nutsedge [10, 21]: 0
Plant response rating, Nutsedge [10, 22]: 0
Plant response rating, Velvetleaf [11, 19]: 100
Plant response rating, Velvetleaf [11, 20]: 20
Plant response rating (0 to 100), Velvetleaf [11, 21]: 100
Plant response rating, Velvetleaf [11, 22]: 100
Plant response rating, Johnsongrass [12, 19]: 40
Plant response rating, Johnsongrass [12, 20]: 0
Plant response rating (0 to 100), Johnsongrass [12, 21]: 100
Plant response rating, Johnsongrass [12, 22]: 70
Plant response rating, Ragweed, Common ([13]; Rate 62 g/ha, scale 0 to 100): 60
Plant response rating (0 to 100), Ragweed, Common ([13]; Rate 500 g/ha, visual evaluation after 12 to 14 days): 100
Plant response rating, Ragweed, Common [13, 23]: 80
Plant response rating, Kochia (kochia (Kochia scoparia); [19]): 100
Plant response rating, Kochia (kochia (Kochia scoparia); [20]): 80
Plant response rating (0 to 100), Kochia (kochia (Kochia scoparia); [21]): 100
Plant response rating, Kochia (kochia (Kochia scoparia); [22]): 100
Plant response rating, Cocklebur [14, 19]: 0
Plant response rating, Cocklebur [14, 20]: 0
Plant response rating (0 to 100), Cocklebur [14, 21]: 0
Plant response rating, Cocklebur [14, 22]: 0
Plant response rating, Bermudagrass [15, 19]: 100
Plant response rating, Bermudagrass [15, 20]: 100
Plant response rating (0 to 100 where 0 is no effect and 100 is complete control), Bermudagrass [15, 21]: 100
Plant response rating, Bermudagrass [15, 22]: 100
Plant response rating, Surinam grass [16, 19]: 10
Plant response rating, Surinam grass [16, 20]: 0
Plant response rating (0 to 100), Surinam grass [16, 21]: 50
Plant response rating, Surinam grass [16, 22]: 30
Plant response rating, Sunflower (Sunflower): 50
Plant response rating, Foxtail, Giant [17, 19]: 100
Plant response rating, Foxtail, Giant [17, 20]: 0
Plant response rating (0 to 100), Foxtail, Giant [17, 21]: 100
Plant response rating, Foxtail, Giant [17, 22]: 100
Plant response rating, Soybean (soybean (Glycine max); [19]): 60
Plant response rating, Soybean (soybean (Glycine max); [20]): 40
Plant response rating (0 to 100), Soybean (soybean (Glycine max); [21]): 90
Plant response rating, Soybean (soybean (Glycine max); [22]): 65
Plant response rating, Pigweed [18, 19]: 100
Plant response rating, Pigweed [18, 20]: 75
Plant response rating (0 to 100), Pigweed [18, 21]: 100
Plant response rating, Pigweed [18, 22]: 100
Plant response rating, Corn (corn (Zea mays); [19]): 0
Plant response rating, Corn (corn (Zea mays); [20]): 0
Plant response rating (0 to 100), Corn (corn (Zea mays); [21]): 35
Plant response rating, Corn (corn (Zea mays); [22]): 10
